According to US11046675B2, “Substituted isoquionline derivatives as immunomudulators” (Bristol-Myers Squibb Company, priority 2017, dated 2021):

Biological target: PD-1/PD-L1 (Homo sapiens (Human), UniProt Q9NZQ7)
Test: PD-1/PD-L1 Homogenous Time-Resolved Fluorescence (HTRF) binding assay
Conditions: PD-L1-His 10 nM, PD-1-Ig 20 nM; reported as range class; read-out: IC50 (μM) (Range or value)
From the text: The ability of the compounds of formula (I) to bind to PD-L1 was investigated using a PD-1/PD-L1 Homogenous Time-Resolved Fluorescence (HTRF) binding assay.
Homogenous Time-Resolved Fluorescence (HTRF) Binding Assay
The interaction of PD-1 and PD-L1 can be assessed using soluble, purified preparations of the extracellular domains of the two proteins. The PD-1 and PD-L1 protein extracellular domains were expressed as fusion proteins with detection tags, for PD-1, the tag was the Fc portion of Immunoglobulin (PD-1-Ig) and for PD-L1 it was the 6 histidine motif (PD-L1-His). All binding studies were performed in an HTRF assay buffer consisting of dPBS supplemented with 0.1% […] bovine serum albumin and 0.05% (v/v) Tween-20. For the h/PD-L1-His binding assay, inhibitors were pre-incubated with PD-L1-His (10 nM final) for 15m in 4 μl of assay buffer, followed by addition of PD-1-Ig (20 nM final) in 1 μl of assay buffer and further incubation for 15 m. HTRF detection was achieved using europium crypate-labeled anti-Ig (1 nM final) and allophycocyanin (APC) labeled anti-His (20 nM final). Antibodies were diluted in HTRF detection buffer and 5 μl was dispensed on top of the binding reaction. The reaction mixture was allowed to equilibrate for 60 minutes and the resulting signal (665 nm/620 nm ratio) was obtained using an EnVision fluorometer. Additional binding assays were established between the human proteins PD-1-Ig/PD-L2-His (20 & 2 nM, respectively) and CD80-His/PD-L1-Ig (100 & 10 nM, respectively).
Recombinant Proteins: Human PD-1 (25-167) with a C-terminal human Fc domain of immunoglobulin G (Ig) epitope tag [hPD-1 (25-167)-3S-IG] and human PD-L1 (18-239) with a C-terminal His epitope tag [hPD-L1(18-239)-TVMV-His] were expressed in HEK293T cells and purified sequentially by ProteinA affinity chromatography and size exclusion chromatography. Human PD-L2-His and CD80-His was obtained through commercial sources.

Chain of PD-1/PD-L1 (Q9NZQ7 other isoform, or with tags, fused parts or gaps): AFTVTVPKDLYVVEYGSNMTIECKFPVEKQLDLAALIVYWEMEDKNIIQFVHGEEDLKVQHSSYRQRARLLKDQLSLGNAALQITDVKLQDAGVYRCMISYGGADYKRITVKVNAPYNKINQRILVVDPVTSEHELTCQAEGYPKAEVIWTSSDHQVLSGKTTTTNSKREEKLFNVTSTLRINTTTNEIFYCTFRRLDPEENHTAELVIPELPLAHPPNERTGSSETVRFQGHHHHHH

Question: For `Cc1c(COc2cc(O)c3c(c2)CCN(CC(=O)O)C3)cccc1-c1ccc2c(c1)OCCO2` [Example 1003, 2-(6-((3-(2,3-dihydrobenzo[b][1,4]dioxin-6-yl)-2-methylbenzyl)oxy)-8-hydroxy-3,4-dihydroisoquinolin-2(1H)-yl)acetic acid], which IC50 is on record?
Answer: Its IC50 is 0.051 to 1.5 µM.

Question: Which IC50 does the source give for `Cc1c(COc2cc3c(c(OCc4cncc(C#N)c4)c2)CN(CC(=O)O)CC3)cccc1-c1ccc2c(c1)OCCO2` [Example 1001, 2-(8-((5-cyanopyridin-3-yl)methoxy)-6-((3-(2,3-dihydrobenzo[b][1,4]dioxin-6-yl)-2-methylbenzyl)-oxy)-3,4-dihydroisoquinolin-2(1H)-yl)acetic acid] here?
Answer: The IC50 was 0.002 to 0.015 µM.

Question: For `COC(=O)c1cncc(COc2cc(OCc3cccc(-c4cccc(OCCCN5CC[C@@H](O)C5)c4C)c3C)c(Cl)c3c2CN(CC(=O)O)CC3)c1` [Example 1007, (R)-2-(5-chloro-6-((3′-(3-(3-hydroxypyrrolidin-1-yl)propoxy)-2,2′-dimethyl-[1,1′-biphenyl]-3-yl)methoxy)-8-((5-(methoxycarbonyl)pyridin-3-yl)methoxy)-3,4-dihydro-isoquinolin-2(1H)-yl)acetic acid], which IC50 is on record?
Answer: The IC50 was 0.016 to 0.05 µM.

Question: With `Cc1c(COc2ccc3c(c2)CN[C@@H](C(=O)O)C3)cccc1-c1ccc2c(c1)OCCO2` [Example 1004, (R)-7-((3-(2,3-dihydrobenzo[b][1,4]dioxin-6-yl)-2-methylbenzyl)oxy)-1,2,3,4-tetrahydroisoquinoline-3-carboxylic acid] as the molecule, how does the IC50 read?
Answer: Its IC50 is 1.51 to 10 µM.

Question: Which IC50 does the source give for `Cc1c(COc2cc(OCc3cncc(C#N)c3)cc3c2CN(CC(=O)O)CC3)cccc1-c1ccc2c(c1)OCCO2` [Example 1002, 2-(6-((5-cyanopyridin-3-yl)methoxy)-8-((3-(2,3-dihydrobenzo[b][1,4]-dioxin-6-yl)-2-methylbenzyl)oxy)-3,4-dihydroiso-quinolin-2(1H)-yl)acetic acid] here?
Answer: Its IC50 is 0.051 to 1.5 µM.

Same assay, conditions: PD-L1-His 10 nM, PD-1-Ig 20 nM; reported as value; read-out: IC50 (μM) (Range or value)

Question: `Cc1c(COc2cc(OCc3cncc(C#N)c3)c3c(c2Cl)CCN(CC(=O)O)C3)cccc1-c1cccc(OCCCN2CC[C@@H](O)C2)c1C` [Example 1006, (R)-2-(5-chloro-8-((5-cyanopyridin-3-yl)methoxy)-6-((3′-(3-(3-hydroxypyrrolidin-1-yl)propoxy)-2,2′-dimethyl-[1,1′-biphenyl]-3-yl)methoxy)-3,4-dihydroisoquinolin-2(1H)-yl)acetic acid] was tested. Which IC50 did it give?
Answer: Its IC50 is 0.002 µM.

Question: `COC(=O)CN1CCc2c(Cl)c(OCc3cccc(-c4cccc(OCCCN5CC[C@@H](O)C5)c4C)c3C)cc(OCc3cncc(C(=O)OC)c3)c2C1` [Example 1008, methyl (R)-5-(((5-chloro-6-((3′-(3-(3-hydroxypyrrolidin-1-yl)propoxy)-2,2′-dimethyl-[1,1′-biphenyl]-3-yl)methoxy)-2-(2-methoxy-2-oxoethyl)-1,2,3,4-tetrahydroisoquinolin-8-yl)oxy)methyl)nicotinate] was tested. Which IC50 did it give?
Answer: Its IC50 is greater than 10 µM.

Question: `Cc1c(COc2ccc3c(c2)CN[C@H](C(=O)O)C3)cccc1-c1ccc2c(c1)OCCO2` [Example 1005, (S)-7-((3-(2,3-dihydrobenzo[b][1,4]dioxin-6-yl)-2-methylbenzyl)oxy)-1,2,3,4-tetrahydroisoquinoline-3-carboxylic acid] was tested. Which IC50 did it give?
Answer: The IC50 was greater than 10 µM.
